In patent US7470707B2, “Crystalline monohydrate clopidogrel naphthalenedisulfonate and process of preparation” (Hanmi Pharm. Co., Ltd, priority 2004, dated 2008):
Where a name gives a salt, the structure may show the parent alone. Read-outs that look alike come from different tables or passages of the source.

How the values were obtained:
[1] = 60±2° C., 75±5% relative humidity
Protocol: (§1) The assay of the acid addition salt of clopidogrel was measured using HPLC condition A, the amount of hydrolyzed impurities of the acid addition salt of clopidogrel was measured using HPLC condition B, the optical purity of the acid addition salt of clopidogrel (i.e., the amount of the levorotatory isomers) was measured using the HPLC condition C, and the water content of the acid addition salt of clopidogrel was measured with a Karl-Fisher titrator.

[2] = 60±2° C., 75±5% RH; for Relative amount compared to the initial amount: HPLC condition A; for Amount of hydrolyzed impurities (formula (III)) of an acid addition salt of clopidogrel: HPLC condition B; for Amount of levorotatory isomers (formula (IV)) of an acid addition salt of clopidogrel: HPLC condition C
Protocol: Condition A: For the measurement of an assay of an acid addition salt of clopidogrel
• Column: Kromasil C18, 5 μm (250 mm×4.6 mm) • Detector: 220 nm • Flow rate: 1.5 ml/minute • Mobile phase: Na2HPO4—NaH2PO4 buffer solution: THF: CH3CN=5:2:3 (v/v) Condition B: For the measurement of an amount of hydrolyzed impurities of an acid addition salt of clopidogrel • Column: Capcellpak C18 MG, 5 μm (250 mm×4.6 mm) • Detector: 210 nm • Flow rate: 1.0 ml/min. • Mobile phase: KH2PO4 buffer solution/CH3CN (70/30): KH2PO4 buffer solution/CH3CN (30/70)=0:100 100:0 (v/v, gradient elution) Condition C: For the measurement of an optical purity of an acid addition salt of clopidogrel • Column: Chiralpak AD, 5 μm (250 mm×4.6 mm) • Detector: 210 nm • Flow rate: 1.0 ml/min. • Mobile phase: n-hexane: isopropanol=90:10 (v/v)
as §1

[3] = system: platelet aggregation induced by adenosine-diphosphate (ADP); conditions: ADP (5 μM), PRP of female Sprague-Dawley rats after oral dose corresponding to clopidogrel 15.3 mg/kg
Protocol: (§2) The pharmacological activities for preventing platelet aggregation of the clopidogrel hydrogen sulfate obtained in Comparative Example 1, and the inventive clopidogrel 2-naphthalenesulfonate and clopidogrel 1,5-naphthalenedisulfonate monohydrate obtained in Examples 1 and 2, respectively, were tested using rat blood in accordance with the standard method (see Born G.V.R & Cross, J. Physiol. 168: 178-195, 1963; 0. Takahashi, Food & Chemical Toxicology 38: 203-218, 2000). The platelet aggregation inhibition test was performed ex vivo, and the inhibitory activities of the acid addition salts against platelets aggregation induced by adenosine-diphosphate (ADP), collagen and thrombin, respectively, were measured.
(§3) Twenty 11 to 12-weeks old female Sprague-Dawley rats (average weight: 270±25 g) were divided into four groups each consisting of five rats, and each group of rats was orally administered with 20.0 mg/kg of clopidogrel hydrogen sulfate (15.3 mg/kg as clopidogrel), 25.2 mg/kg of clopidogrel 2-naphthalenesulfonate, and 22.6 mg/kg of clopidogrel 1,5-naphthalenedisulfonate monohydrate dissolved in 1% DMSO based on a volume of 10 ml/kg body weight. For the control group of rats, only 1% DMSO solution was administered.
(§4) Blood samples were taken using a syringe pre-charged with 3.8% citric acid solution from the abdominal artery of the animals under anesthesia, and the blood samples were centrifuged at 4° C. and 1,000 rpm for 10 minutes to separate platelet-rich plasma (PRP). The separated plasma was further centrifuged four times at 4° C. and 1,000 rpm to obtain PRP for test. A portion of PRP was further centrifuged at 4° C. and 3,000 rpm for 10 minutes to prepare precipitated platelet, and the precipitated platelet was washed with a buffer (138 mM NaCl, 2.7 mM KCl, 12 mM NaHCO3, 0.36 mM NaH2PO4, 5.5 mM glucose, 1 mM EDTA: pH 6.5). Then, the platelet was suspended in a buffer (138 mM NaCl, 2.7 mM KCl, 12 mM NaHCO3, 0.36 mM NaH2PO4, 0.49 mM MgCl2, 0.25% gelatin, 5.5 mM glucose: pH 7.4) such that the optical density (OD) value at 260 nm corresponded to a number of platelet which is about 1×10^8.
(§5) To induce platelet aggregation, ADP standard solution was added to the above PRP to determine the concentration until the final concentration of the ADP became 5 μM. Further, a collagen standard solution (final concentration 5 μg/ml) and thrombin standard solution (final concentration 0.1 U/ml) was added to the above washing platelet solution to induce platelet aggregation. Each of the samples was stirred at 37° C. and 900 rpm to measure the amount of platelet aggregation using a aggregometer (Chrono-log Platelet Aggregometer). The degrees of platelet aggregation and inhibition were calculated using formulae 1 and 2, and the results are shown in Table 8. Degree of aggregation (%)=[(measured aggregation height)/(aggregation height when 100% was aggregated)]×100 <Formula 1> Degree of inhibition (%)=[(aggregation height of control group)−(aggregation height of drug administration group)]/(aggregation height of control group)×100 <Formula 2>

[4] = system: platelet aggregation induced by thrombin; conditions: Thrombin (0.1 U/ml), washed platelets of female Sprague-Dawley rats after oral dose corresponding to clopidogrel 15.3 mg/kg
Protocol: as §2, §3, §4, §5

[5] = system: platelet aggregation induced by collagen; conditions: Collagen (5 μg/ml), washed platelets of female Sprague-Dawley rats after oral dose corresponding to clopidogrel 15.3 mg/kg
Protocol: as §2, §3, §4, §5

COC(=O)[C@H](c1ccccc1Cl)N1CCc2sccc2C1 [1,5-Naphthalenedisulfonate monohydrate, Clopidogrel 1,5-naphthalenedisulfonate Monohydrate]
Water content ([1]; 0 day, Monohydrate): 1.8% | Water content ([1]; 7 days, Monohydrate): 1.8% | Water content ([1]; 14 days, Monohydrate): 1.9% | Water content ([1]; 21 days, Monohydrate): 1.9% | Water content ([1]; 28 days, Monohydrate): 1.8% | Water content ([1]; 35 days, Monohydrate): 1.9% | Relative amount compared to the initial amount ([2]; 0 day): 100% | Amount of hydrolyzed impurities (formula (III)) of an acid addition salt of clopidogrel ([2]; 0 day): 0.0% | Amount of levorotatory isomers (formula (IV)) of an acid addition salt of clopidogrel ([2]; 0 day, Monohydrate): 0.10% | Relative amount compared to the initial amount ([2]; 7 days, Monohydrate): 100% | Amount of levorotatory isomers (formula (IV)) of an acid addition salt of clopidogrel ([2]; 7 days, Monohydrate): 0.10% | Relative amount compared to the initial amount ([2]; 14 days, Monohydrate): 100% | Amount of hydrolyzed impurities (formula (III)) of an acid addition salt of clopidogrel ([2]; 14 days, Monohydrate): 0.02% | Amount of levorotatory isomers (formula (IV)) of an acid addition salt of clopidogrel ([2]; 14 days, Monohydrate): 0.10% | Relative amount compared to the initial amount ([2]; 21 days, Monohydrate): 100% | Amount of levorotatory isomers (formula (IV)) of an acid addition salt of clopidogrel ([2]; 21 days, Monohydrate): 0.09% | Relative amount compared to the initial amount ([2]; 28 days, Monohydrate): 99.9% | Amount of hydrolyzed impurities (formula (III)) of an acid addition salt of clopidogrel ([2]; 28 days, Monohydrate): 0.04% | Amount of levorotatory isomers (formula (IV)) of an acid addition salt of clopidogrel ([2]; 28 days, Monohydrate): 0.11% | Relative amount compared to the initial amount ([2]; 35 days, Monohydrate): 99.9% | Amount of hydrolyzed impurities (formula (III)) of an acid addition salt of clopidogrel ([2]; 35 days, Monohydrate): 0.05% | Amount of levorotatory isomers (formula (IV)) of an acid addition salt of clopidogrel ([2]; 35 days, Monohydrate): 0.10% | Aggregation ratio ([3]; Monohydrate): 4.12 ± 0.14% | Inhibition ratio ([3]; Monohydrate): 88.5% | Aggregation ratio ([4]; Monohydrate): 23.61 ± 1.43% | Inhibition ratio ([4]; Monohydrate): 71.5% | Aggregation ratio ([5]; Monohydrate): 3.75 ± 0.40% | Inhibition ratio ([5]; Monohydrate): 95.3%

COC(=O)[C@H](c1ccccc1Cl)N1CCc2sccc2C1 [Hydrogen sulfate, Clopidogrel Hydrogen Sulfate, reference compound]
Water content ([1]; 0 day): 0.1% | Water content ([1]; 7 days): 0.1% | Water content ([1]; 14 days): 0.1% | Water content ([1]; 21 days): 0.4% | Water content ([1]; 28 days): 2.0% | Water content ([1]; 35 days): 4.8% | Relative amount compared to the initial amount ([2]; 0 day): 100% | Amount of hydrolyzed impurities (formula (III)) of an acid addition salt of clopidogrel ([2]; 0 day): 0.0% | Amount of levorotatory isomers (formula (IV)) of an acid addition salt of clopidogrel ([2]; 0 day): 0.35% | Relative amount compared to the initial amount ([2]; 7 days): 99.6% | Amount of levorotatory isomers (formula (IV)) of an acid addition salt of clopidogrel ([2]; 7 days): 0.35% | Relative amount compared to the initial amount ([2]; 14 days): 98.7% | Amount of hydrolyzed impurities (formula (III)) of an acid addition salt of clopidogrel ([2]; 14 days): 0.63% | Amount of levorotatory isomers (formula (IV)) of an acid addition salt of clopidogrel ([2]; 14 days): 0.40% | Relative amount compared to the initial amount ([2]; 21 days): 97.7% | Amount of levorotatory isomers (formula (IV)) of an acid addition salt of clopidogrel ([2]; 21 days): 0.49% | Relative amount compared to the initial amount ([2]; 28 days): 94.4% | Amount of hydrolyzed impurities (formula (III)) of an acid addition salt of clopidogrel ([2]; 28 days): 2.0% | Amount of levorotatory isomers (formula (IV)) of an acid addition salt of clopidogrel ([2]; 28 days): 0.67% | Relative amount compared to the initial amount ([2]; 35 days): 87.0% | Amount of hydrolyzed impurities (formula (III)) of an acid addition salt of clopidogrel ([2]; 35 days): 4.8% | Amount of levorotatory isomers (formula (IV)) of an acid addition salt of clopidogrel ([2]; 35 days): 1.08% | Aggregation ratio [3]: 5.00 ± 0.60% | Inhibition ratio [3]: 86.1% | Aggregation ratio [4]: 27.22 ± 1.52% | Inhibition ratio [4]: 67.1% | Aggregation ratio [5]: 12.19 ± 1.70% | Inhibition ratio [5]: 84.8%
